Experimental data as given in patent publication US20040142971A1, “BENZOTHIOPHENE COMPOUNDS HAVING ANTIINFECTIVE ACTIVITY” (GeneSoft, Inc., priority 2001, published 2004).
In brackets after ≈: the same amount, converted by molar mass. Like-named read-outs stand apart in the source and are kept apart here.

Legend:
B. Cereus ATCC 11778 = experiment: MIC, NCCLS broth microdilution; assay type: cell-based, Bacillus cereus; conditions: for MIC: Bacillus cereus
Excerpt: (§1) In vitro biological activity data were collected for a variety of microorganisms, including Bacillus cereus (ATCC 11778), Staphylococcus aureus (ATCC 27660 (a methicillin resistant strain (MRSA), ATCC 33591 and ATCC 43300); ATCC 13709, a methicillin sensitive strain (MSSA)); Streptococcus pneumoniae (ATCC 51422, a penicillin resistant strain (PRSP)), Enterococcus faecium (ATCC 51559, a vancomycin resistant strain (VRE)), and Staphylococcus epidermidis (ATCC 700586, a methycillin resistant strain (MRSE)). Additionally, antifungal activity data were collected for Candida albicans (ATCC 38247). Minimal inhibition concentrations (MIC's) were determined using the National Committee for Clinical Laboratory Standards (NCCLS) broth microdilution assay in microtiter plates, as set forth in: (1) the guidelines of the National Committee for Clinical Laboratory Standards (NCCLS) Document M7-A4 (NCCLS, 1997); (2) the guidelines of the National Committee for Clinical Laboratory Standards (NCCLS) Document M11-A4 (NCCLS, 1997); and (3) the guidelines and reference method of the National Committee for Clinical Laboratory Standards (NCCLS) Document M27-T (NCCLS, 1995). For antifungal essays, the method recommended in Murray, PR., 1995 Manual of Clinical Microbiology (ASM Press, Washington, D.C.), was employed.

[1] = test system: E. faecium ATCC 51559 (vancomycin resistant strain, VRE); experiment: MIC, NCCLS broth microdilution; assay type: cell-based, Enterococcus faecium; conditions: for MIC: Enterococcus faecium, read-out: Minimum Inhibitory Concentration (MIC)
Excerpt: as §1

[2] = test system: S. aureus ATCC 13709 (methicillin sensitive strain, MSSA); experiment: MIC, NCCLS broth microdilution; assay type: cell-based, Staphylococcus aureus; conditions: for MIC: Staphylococcus aureus, read-out: Minimum Inhibitory Concentration (MIC)
Excerpt: as §1

[3] = test system: S. aureus ATCC 27660 (methicillin resistant strain, MRSA); experiment: MIC, NCCLS broth microdilution; assay type: cell-based, Staphylococcus aureus; conditions: for MIC: Staphylococcus aureus, read-out: Minimum Inhibitory Concentration (MIC)
Excerpt: as §1

S. aureus ATCC 33591 = experiment: MIC, NCCLS broth microdilution; assay type: cell-based, Staphylococcus aureus; conditions: for MIC: Staphylococcus aureus
Excerpt: as §1

[4] = test system: S. epidermidis ATCC 700586 (methycillin resistant strain, MRSE); experiment: MIC, NCCLS broth microdilution; assay type: cell-based, Staphylococcus epidermidis; conditions: for MIC: Staphylococcus epidermidis, read-out: Minimum Inhibitory Concentration (MIC)
Excerpt: as §1

[5] = test system: S. pneumoniae ATCC 51422 (penicillin resistant strain, PRSP); experiment: MIC, NCCLS broth microdilution; assay type: cell-based, Streptococcus pneumoniae; conditions: for MIC: Streptococcus pneumoniae, read-out: Minimum Inhibitory Concentration (MIC)
Excerpt: as §1

[6] = test system: Candida albicans (ATCC 38247); experiment: Antifungal MIC; assay type: cell-based
Excerpt: as §1, with “employed. The results are presented in Table A below, which is keyed as follows: […]” for “employed.”

[7] = test system: methycillin resistant Staphylococcus aureus ATCC 33591; experiment: Murine neutropenic thigh model; assay type: in vivo, mice; conditions: 50 mg/kg intravenously two hours post infection, 6 hr after treatment
Protocol: A S. aureus ATCC 33591 culture was grown to log phase overnight and diluted in phosphate buffered saline (pH 7.2) to an optical density of about 0.1 at 600 nm, giving an approximate concentration of 10^8 cfu/mL. The suspension was diluted 1:100 in phosphate buffered saline (pH 7.2) for a final concentration of 10^6 cfu/mL.
Outbred female CF1 mice (approx. 20 gram body weight) were rendered neutropenic by treatment with cyclophosphamide (200 mg/kg body weight, intraperitoneal injection) at 2 and 4 days prior to inoculation. Groups of 5 mice were inoculated with 0.05 mL of the bacteria (approx. 10^6 cfu/mL) into the anterior thigh. Each group was treated intravenously two hours post infection with vehicle (phosphate buffered saline) or test compound. The mice were sacrificed at either 6 or 24 hrs after treatment and thighs were collected aseptically. Each thigh was weighed, placed into sterile saline, and homogenized. The tissue homogenates were diluted appropriately for plating on agar plates. Colony counts were recorded (cfu/gram) and compared to control groups.
In vivo efficacy was shown by a decrease in colony count (log cfu/gram of tissue) in the compound-treated animals when compared against the colony count in animals given only the vehicle.

S. aureus ATCC 43300 = experiment: MIC, NCCLS broth microdilution; assay type: cell-based; conditions: Staphylococcus aureus, ATCC43300, read-out: Minimum Inhibitory Concentration (MIC)
Excerpt: as §1

Minimum Inhibitory Concentration (MIC) (B. Cereus ATCC 11778; A = B. Cereus ATCC 11778)	Minimum Inhibitory Concentration (MIC) ([2]; C = S. aureus ATCC 13709)	Minimum Inhibitory Concentration (MIC) ([3]; D = S. aureus ATCC 27660)	Minimum Inhibitory Concentration (MIC) ([1]; B = E. faecium ATCC 51559)	Minimum Inhibitory Concentration (MIC) (S. aureus ATCC 33591; E = S. aureus ATCC 33591)	Minimum Inhibitory Concentration (MIC) ([4]; G = S. epidermidis ATCC 700586)	Minimum Inhibitory Concentration (MIC) ([5]; H = S. pneumoniae ATCC 51422)	Compound	also measured
–	–	–	–	–	–	–	Cn1cc(NC(=O)c2cc(NC(=O)c3cc(NC(=O)c4sc5ccccc5c4Cl)c[nH]3)cn2C)cc1C(=O)NCCN1CCCC1 [Ib-48]	MIC (B. Cereus ATCC 11778; ATCC11778, A = B. Cereus ATCC 11778, read-out: Minimum Inhibitory Concentration (MIC)): < 4 µg/mL; MIC ([1]; B = E. faecium ATCC 51559): 4 to 12 µg/mL (≈ 6.05 to 18.1 µM); MIC ([2]; C = S. aureus ATCC 13709): < 4 µg/mL; MIC ([3]; D = S. aureus ATCC 27660): < 4 µg/mL; MIC (S. aureus ATCC 33591; ATCC33591, E = S. aureus ATCC 33591, read-out: Minimum Inhibitory Concentration (MIC)): < 4 µg/mL; MIC ([4]; G = S. epidermidis ATCC 700586): < 4 µg/mL; MIC ([5]; H = S. pneumoniae ATCC 51422): < 4 µg/mL; MIC ([6]; ATCC38247, read-out: MIC): < 4 µg/mL; Colony Count (log cfu/gram) Compound [7]: 4.74 log cfu/gram
+++ (+++ = MIC ≦ 4)	+++ (+++ = MIC ≦ 4)	+++ (+++ = MIC ≦ 4)	–	–	–	–	Cn1cc(NC(=O)c2cc(NC(=O)c3cc(NC(=O)c4cc5ccccc5cn4)c[nH]3)cn2C)cc1C(=O)NCCN1CCOCC1 [Ib-50]	MIC [6]: ++ (++ = MIC between 4 and 12); Colony Count (log cfu/gram) Compound [7]: 7.97 log cfu/gram
+++ (+++ = MIC ≦ 4)	+++ (+++ = MIC ≦ 4)	+++ (+++ = MIC ≦ 4)	+++ (+++ = MIC ≦ 4)	+++ (+++ = MIC ≦ 4)	+++ (+++ = MIC ≦ 4)	+++ (+++ = MIC ≦ 4)	CC(=O)[O-].Cc1cc(NC(=O)c2cc(NC(=O)c3cc(NC(=O)c4cc5ccccc5cn4)cn3C)cn2CCC[N+](C)(C)C)sn1 [Ib-74]	–
–	–	–	–	–	–	–	Cn1cc(NC(=O)c2cc(NC(=O)c3cc(NC(=O)c4sc5ccccc5c4Cl)cn3C)cn2C)cc1C(=O)NCCN1CCOCC1 [Ib-1]	MIC (B. Cereus ATCC 11778; ATCC11778, read-out: Minimum Inhibitory Concentration (MIC)): < 4 µg/mL; MIC [1]: < 4 µg/mL; MIC [2]: < 4 µg/mL; MIC [3]: < 4 µg/mL; MIC (S. aureus ATCC 33591; ATCC33591, read-out: Minimum Inhibitory Concentration (MIC)): < 4 µg/mL; MIC (S. aureus ATCC 43300): < 4 µg/mL; MIC [4]: < 4 µg/mL; MIC [5]: < 4 µg/mL
+++ (+++ = MIC ≦ 4)	+++ (+++ = MIC ≦ 4)	+++ (+++ = MIC ≦ 4)	+++ (+++ = MIC ≦ 4)	+++ (+++ = MIC ≦ 4)	+++ (+++ = MIC ≦ 4)	+++ (+++ = MIC ≦ 4)	Cn1cc(NC(=O)c2cc(NC(=O)c3cc(NC(=O)c4cc5ccccc5cn4)c[nH]3)cn2C)cc1C(=O)NCCc1ccccn1 [Ib-70]	–
+++ (+++ = MIC ≦ 4)	+++ (+++ = MIC ≦ 4)	+++ (+++ = MIC ≦ 4)	+++ (+++ = MIC ≦ 4)	+++ (+++ = MIC ≦ 4)	+++ (+++ = MIC ≦ 4)	+++ (+++ = MIC ≦ 4)	Cn1cc(NC(=O)c2cc(NC(=O)c3cc(NC(=O)c4cc5ccccc5cn4)c[nH]3)cn2C)cc1C(=O)NCCN1CCC(F)CC1 [Ib-71]	–

Compound	Minimum Inhibitory Concentration (MIC) (B. Cereus ATCC 11778; A = B. Cereus ATCC 11778)	Minimum Inhibitory Concentration (MIC) ([2]; C = S. aureus ATCC 13709)	Minimum Inhibitory Concentration (MIC) ([3]; D = S. aureus ATCC 27660)	Minimum Inhibitory Concentration (MIC) ([1]; B = E. faecium ATCC 51559)	Minimum Inhibitory Concentration (MIC) (S. aureus ATCC 33591; E = S. aureus ATCC 33591)	Minimum Inhibitory Concentration (MIC) ([4]; G = S. epidermidis ATCC 700586)	Minimum Inhibitory Concentration (MIC) ([5]; H = S. pneumoniae ATCC 51422)	also measured
CN1CCN(CCCNC(=O)c2cc(NC(=O)c3sc4cc5c(cc4c3Cl)OCO5)cn2C)CC1 [Ib-20r]	+++ (+++ = MIC ≦ 4)	+++ (+++ = MIC ≦ 4)	+++ (+++ = MIC ≦ 4)	+++ (+++ = MIC ≦ 4)	+++ (+++ = MIC ≦ 4)	+++ (+++ = MIC ≦ 4)	+++ (+++ = MIC ≦ 4)	–
Cn1cc(NC(=O)c2cc(NC(=O)c3cc(NC(=O)c4sc5cc6c(cc5c4Cl)OCO6)cn3C)cn2C)cc1C(=O)NCCN1CCOCC1 [Ib-20d]	+++ (+++ = MIC ≦ 4)	+++ (+++ = MIC ≦ 4)	+++ (+++ = MIC ≦ 4)	+++ (+++ = MIC ≦ 4)	+++ (+++ = MIC ≦ 4)	+++ (+++ = MIC ≦ 4)	+++ (+++ = MIC ≦ 4)	–
